Key:
[1] = test system: SphK2 siRNA-transfected Huh7 cells; experiment: Cell viability after siRNA-mediated knockdown of SphK2; assay type: cell-based; details: SphK2 siRNA vs scrambled
Protocol: (§1) Cell viability assay. Cell viability was assessed by 3-(4,5-dimethylthiazol-2-yl)-2,5-diphenyl-2H-tetrazolium bromide (MTT) assays in six replicates. Cells were seeded (4,000 cells/well; 96-well plate) for 24 h and treated with test agents in 5% FBS-supplemented DMEM. After treatment, cells were incubated in medium containing 0.5 mg/ml MTT (37° C., 2 h). Reduced MTT was dissolved in DMSO (200 μL/well) and absorbances measured at 570 nm.
Small interfering (si)RNA- or short hairpin (sh)RNA-mediated knockdown. PLC5 and Huh7 cells were transfected with the following siRNA duplexes or shRNA plasmids according to the manufacturer's protocol for the knockdown of target genes: siRNA: glutathione S-transferase (GST)-π and sphingosine kinase 2 (SphK2); shRNA constructs: pKD-PKCδ-v2. Stable clones were isolated from Huh7 cells transfected with shRNA plasmids were further subjected to stable clone isolation by geneticin. Immunoblotting was performed to confirm the knockdowns.

[2] = Toxicity evaluation in tumor-bearing mice (body weight, blood counts, histopathology); assay type: in vivo, athymic nude mice; details: for mice with abdominal adhesions with varying amounts of peritonitis: of six mice per group examined histologically
Protocol: Xenograft tumor models. Ectopic tumors were established in athymic nude mice by subcutaneous injection of 1×10^6 Hep3B cells in a total volume of 0.1 ml of serum-free medium containing 50% Matrigel. Mice with established tumors were randomized to five groups (n=8) that received daily i.p. injections of OSU-2S or FTY720 at 5 or 10 mg/kg, or the vehicle. Tumor burdens were determined weekly using calipers (volume=width^2×length×0.52). Body weights were measured weekly. At the study endpoint, tumors were harvested, snap-frozen and stored at −80° C. for biomarker analysis. Blood and tissues were collected for evaluation of complete blood counts, serum chemistry and histopathology.
Orthotopic tumors were established by direct intrahepatic injection of luciferase-expressing Hep3B (Hep3B-luc) cells as described. Omar et al., Mol Pharmacol, 76, 957-968 (2009). The establishment and growth of tumors were monitored by bioluminescent imaging using the IVIS™ imaging system (Xenogen, Alameda, Calif.). Two weeks after tumor cell injection, animals with established tumors were randomized to three groups (n=3) that received daily i.p. injections of FTY720 or OSU-2S at 5 mg/kg, or vehicle for 42 days and were imaged weekly. All animal use described in this manuscript was done in accordance with protocols approved by The Ohio State University Institutional Animal Care and Use Committee.

[3] = molecular target: T1, S1P1 receptor-overexpressing Huh7 cells (Homo sapiens, UniProt P21453); experiment: Cell viability in stable S1P1 receptor transfectants; assay type: cell-based; details: two stable S1P1 clones vs wild-type Huh7
T1 construct: expressed in transfected cells
T1 sequence (P21453 whole entry): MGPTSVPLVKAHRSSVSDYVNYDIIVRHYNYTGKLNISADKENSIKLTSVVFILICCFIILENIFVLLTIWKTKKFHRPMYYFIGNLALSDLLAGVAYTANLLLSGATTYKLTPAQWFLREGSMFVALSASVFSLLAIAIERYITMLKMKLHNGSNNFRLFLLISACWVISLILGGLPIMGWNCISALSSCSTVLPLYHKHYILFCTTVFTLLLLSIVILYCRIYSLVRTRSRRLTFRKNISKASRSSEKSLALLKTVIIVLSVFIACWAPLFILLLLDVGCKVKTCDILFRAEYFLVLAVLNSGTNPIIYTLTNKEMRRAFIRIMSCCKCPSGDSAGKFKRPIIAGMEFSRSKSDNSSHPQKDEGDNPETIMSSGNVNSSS
Protocol: as §1
Overexpression of S1P1 Receptors. Huh7 or Hep3B cells were transfected with plasmids encoding S1PR1, Flag-tagged GST-π or hemagglutinin (HA)-tagged, CA-Akt. The corresponding empty vectors were used as controls. Stable clones were selected over 3 weeks by geneticin, and the expression of cloned proteins was confirmed by Western blotting.

[4] = test system: lymphocytes in peripheral blood; experiment: In vivo evaluation of T-lymphocyte homing; details: CD2F1 mice, i.p., 6 h
Protocol: In vivo evaluation of T-lymphocyte homing. […] Six hours later, animals were sacrificed, and peripheral blood mononuclear cells were prepared as described. Dragun et al., Kidney Int 65, 1076-1083 (2004). Cells were stained with FITC-labeled rat anti-mouse CD3 molecular complex and PE-labeled rat anti-mouse CD45RA (4° C., in darkness, 30 min), and analyzed by flow cytometry.

[5] = test system: normal human hepatocytes; experiment: MTT cell viability assay, normal hepatocytes; assay type: cell-based; details: 24 h
Protocol: (§2) Cell lines, culture and reagents. The HCC cell lines Hep3B, PLC5 and Huh7, as well as primary nonmalignant human hepatocytes were used in this study. Cancer cells were cultured in Dulbecco's Modified Eagle's medium (DMEM) supplemented with 10% fetal bovine serum (FBS). Hepatocytes were maintained in defined Hepatocyte Culture Medium. […] Various polyclonal and monoclonal antibodies were used for western blotting, immunocytochemical, and flow cytometric analyses.
as §1

[6] = test system: Huh7 cells; experiment: MTT cell viability assay, Huh7; assay type: cell-based; details: Homo sapiens, Huh-7, 24 h of treatment, MTT
Protocol: as §2, §1

[7] = test system: PLC5 cells; experiment: MTT cell viability assay, PLC5; assay type: cell-based; details: 24 h of treatment
Protocol: as §2, §1

[8] = test system: primary CLL cells; experiment: Cytotoxicity in primary CLL cells (Annexin V / propidium iodide flow cytometry); assay type: cell-based
Protocol: Antitumor and other effects of OSU-2S were also evaluated in Chronic Lymphoid Leukemia cells. OSU-2S cytotoxicity in primary CLL cells is measured at 24 hrs by staining for Annexin V and Propidium Iodide using Flow cytometer. The number of live cells (stained negative for both the stains) were normalized to untreated control. Fludarabine metabolite (2-Fara) was used as a control.
The effect of OSU-2S was evaluated in 3 different CLL cell lines (WROTH<THOU, and RAHUE) over a 24 hour period, as shown in FIG. 9. Time dependent OSU-2S cytotoxicity in primary CLL cells was measured by treating the cells with OSU-2S (8 μM) for indicated period of time and washed and cultured in the fresh media for 24 hr. The number of live cells stained negative for Annexin V and Propidium Iodide were measured at 24 hrs by using Flowcytometer and normalized to untreated control.
CD37 activation and OSU-2S produced enhanced cytotoxicity in CLL cells, as detected by flow cytometer at 24 hr. in CLL cells treated with CD37 antibody and cross linker or OSU-2S 8 μM or with both are stained for Annexin V and propidium iodide at 24 hr.

[9] = test system: CLL cells; experiment: Western blot analysis in CLL cells (PARP, caspase 3, caspase 9); assay type: cell-based
Description: Western blot analysis as carried out to further observe the effects of OSU-2S in CLL cells. […] OSU-2S in CLL activates caspase, as evidenced by cleavage of poly (ADP-ribose) polymerase (PARP). Jurkat cell with or without UV irradiation were included as controls. […] OSU-2S was also shown to activate caspase 3 in CLL cells. […] Finally, OSU-2S activates caspase 9 in CLL.

For CCC[C@@](N)(CO)CCc1ccc(OCCCCCC(C)C)cc1 [OSU-2S, (S)-2-amino-2-(4-[(6-methylheptyl)-oxy]phenethyl)pentan-1-ol], the “effect of SphK2 knockdown on antiproliferative activity (sensitizing effect)” value [1] was “not observed”, the “mice with abdominal adhesions with varying amounts of peritonitis” value ([2]; 5 mg/kg) was “all” and the “mice with abdominal adhesions with varying amounts of peritonitis” value ([2]; 10 mg/kg) was “all”. For the same molecule, the lymphocyte levels ([2]; ectopic tumor-bearing mice at study endpoint) was “normal”, the “overt toxicity and body weight” value ([2]; ectopic tumor-bearing mice, daily i.p. 5 or 10 mg/kg) was “no overt signs of toxicity and no loss of body weight” and the total lymphocyte counts ([2]; mice after 42 days of treatment) was “no decrease”. For the same molecule, the “tolerability (stable body weights)” value ([2]; orthotopic tumor-bearing mice, daily i.p., 42 days) was “well tolerated”, the “effect of S1P1 receptor overexpression on antiproliferative activity” value [3] was “no protective effect” and the “effect on number of T lymphocytes in peripheral blood” value ([4]; 5 mg/kg) was “modest decrease”. For the same molecule, the “effect on number of T lymphocytes in peripheral blood” value ([4]; 1 and 2 mg/kg) was “no appreciable effect”, the “changes in circulating B lymphocytes” value [4] was “no comparable changes” and the “sensitivity of normal human hepatocytes relative to malignant cells” value [5] was “resistant”. The IC50 [6] was 2.4 µM, the IC50 [7] was 3.5 µM and the time dependent cytotoxicity ([8]; 8 μM for indicated time, washed, cultured 24 hr, 3 CLL cell lines) was “decreased number live cells over time”. For the same molecule, the “live cells (negative for Annexin V and propidium iodide)” value ([8]; CLL cells, 24 hr, OSU-2S 8 μM and/or CD37 antibody and cross linker) was “about 30%”, the “growth (live cells normalized to untreated control)” value ([8]; primary CLL cells, 24 hrs, OSU-2S at 8 μM) was “about 30%” and the “caspase 3 activation” value ([9]; 24 and 48 hours, products at about 16-18 kD) was “caspase 3 cleaved products”. For the same molecule, the PARP cleavage ([9]; 24 and 48 hours, vs untreated) was “higher levels of PARP” and the “caspase 9 activation” value ([9]; products at about 30-34 kD) was “caspase 9 cleaved products”.

From patent publication US8309768B2, “FTY720-derived anticancer agents” (The Ohio State University Research Foundation, priority 2010, dated 2012)
